Where two headings read alike, the source gives them in different places.
Experiments:
Pyricularia oryzae [1] = type: in vivo; details: rice (Aichi Asahi), granule applied to seedling-raising box, 12 g active ingredient per box; inoculated 40 days after application, examined 6 days after inoculation
Pyricularia oryzae [2] = type: in vivo; details: paddy rice (Aichi Asahi), wettable powder on water surface, 1,000 g active ingredient per 10 ares; inoculated 10 days after application, examined 5 days after inoculation
[3] = tested on: Pseudoperonospora cubensis; details: cucumber seedlings (sagami hanjiro), wettable powder at 500 ppm, 15 ml per pot; examined 7 days later
Experimental: 10 cucumber seeds (variety: sagami hanjiro) were sown in each of vinyl chloride resin made pots of 9 cm×9 cm and were allowed to germinate in a greenhouse for 7 days. The resulting cucumber young seedlings which reached a cotyledon stage were used as a sample plant. […] The plant was air-dried and inoculated, by spraying, with a suspension of conidia of Pseudoperonospora cubensis. Immediately, the pot was placed in a wet house of 20° C. for 24 hours. Then, the pot was transferred into a greenhouse. 7 days later, the total diseased area of all the cotyledons in the pot was examined.

Erysiphe graminis = experiment: Test for control effect on powdery mildew of wheat; type: in vivo; details: wheat seedlings (Nohrin No. 61), wettable powder at 500 ppm, 10 ml per pot; inoculated 7 days after application, examined 8 days after inoculation
Excerpt: Test for Control Effect on Powdery Mildew of Wheat
In each of plasic pots of 6 cm in diameter were sown 10 wheat seeds (variety: Nohrin No. 61). They were allowed to germinate in a greenhouse. […] After 7 days from the application, the seedlings were inoculated, by spraying, with conidia of Erysiphe graminis. After 8 days from the inoculation, the total infected area of all the first leaves in the pot was examined.

Pyricularia oryzae [4] = type: in vivo; details: rice seedlings (Aichi Asahi), wettable powder sprayed at 500 ppm active ingredient, 10 ml per pot; examined 5 days after inoculation

COCN1C(=S)c2ccccc2S1(=O)=O [compound 2]
Evaluation (preventive value, number of lesions of the upper young leaf) (Pyricularia oryzae [1]): B (Less than 100 to 80.0 or more) | Evaluation (preventive value, number of lesions of the upper young leaf) (Pyricularia oryzae [2]): B (Less than 100 to 80.0 or more) | Evaluation (total diseased area of all the cotyledons) [3]: B (Less than 25% of untreated plot) | Evaluation (total infected area of all the first leaves) (Erysiphe graminis): B (Less than 25% of untreated plot) | Evaluation (preventive value, number of lesions of the fourth leaf) (Pyricularia oryzae [4]): B (Less than 100 to 80.0 or more)

From patent US20060287375A1 (priority 2003, published 2006)
